Measured values taken from PubChem BioAssay (NCI).
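Values below derive from 48-hour exposures of cells grown in 96-well plates, with endpoints linearly interpolated between the two concentrations bracketing the appropriate inhibition level. At the TGI there is no net growth.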

Key:
Assay in all cases: DTP human tumour cell line panel, 48 h
[1] = system: NCI/ADR-RES ovarian
[2] = system: U251 CNS
[3] = system: HOP-62 NSCLC
[4] = system: TK-10 renal
[5] = system: SF-268 CNS
[6] = system: ACHN renal
[7] = system: NCI-H23 lung
[8] = system: SNB-75 CNS
[9] = system: MDA-MB-231 breast
[10] = system: K-562 leukemia
[11] = system: M19-MEL melanoma
[12] = system: SNB-78 CNS
[13] = system: HOP-18 NSCLC

Row | SMILES | TGI [1] [µM] | TGI [2] [µM] | TGI [3] [µM] | TGI [4] [µM] | TGI [5] [µM] | TGI [6] [µM] | TGI [7] [µM] | TGI [8] [µM] | TGI [9] [µM] | TGI [10] [µM] | TGI [11] [µM] | TGI [12] [µM] | TGI [13] [µM]
1 | C[C@@H](CC(=O)OCc1ccccc1)OC1OC(COC(=O)C(C)(C)C)C(OC(=O)C(C)(C)C)C(OC(=O)C(C)(C)C)C1OC(=O)C(C)(C)C (stereo not given in full) | > 100 | > 100 | > 100 | > 100 | > 100 | > 100 | > 100 | > 100 | > 100 | > 100 | – | – | –
2 | COC(=O)C1CCC(=O)N1CN(C(C)=O)c1cccc(O)c1 (stereo not given) | > 100 | > 100 | > 100 | > 100 | > 100 | > 100 | > 100 | > 100 | > 100 | > 100 | – | – | –
3 | CC(=O)NC1C(OCC(=O)NCCNc2ccc([N+](=O)[O-])c3[nH]c4ccccc4c(=O)c23)C(O)C(CO)OC1(C)OCc1ccccc1 (stereo not given) | > 100 | > 100 | > 100 | > 100 | > 100 | > 100 | > 100 | > 100 | > 100 | > 100 | – | – | –
4 | O=C(c1ccccc1)C1(Br)S(=O)(=O)OCCOS1(=O)=O | – | > 100 | > 100 | > 100 | > 100 | > 100 | > 100 | > 100 | – | > 100 | > 100 | > 100 | –
5 | NNc1nnc(CCCCCCCCc2nnc(NN)n2N)n1N | > 100 | 49 | > 100 | > 100 | > 100 | > 100 | > 100 | > 100 | > 100 | > 100 | – | – | –
6 | C=CCON(C(=O)OC(C)(C)C)C(C)(C)C | > 100 | > 100 | > 100 | > 100 | > 100 | > 100 | > 100 | > 100 | > 100 | > 100 | – | – | –
7 | COc1ccc2ccccc2c1C1=NC(C)(C)CO1 | – | > 100 | > 100 | > 100 | > 100 | > 100 | > 100 | > 100 | – | > 100 | > 100 | – | > 100
8 | C=C1CC[C@@H](CCC2CCC3(OC2)O[C@]2(O)CC[C@@]3(C)OC2(C)C)C(C)(C)[C@H]1C/C=C1\CCOC1=O (stereo not given in full) | > 100 | 43.5 | > 100 | > 93.1 | > 100 | > 100 | > 100 | > 92.4 | > 80.4 | 26.5 | – | – | –
9 | N#Cc1c(NC(=O)C(F)(F)F)sc2c3c(=O)c4ccccc4c(=O)c=3oc3ccccc3c12 | 61.7 | 41.3 | > 61.9 | 74.6 | 61.4 | > 58 | 38.4 | 39.4 | 67 | 75.3 | – | – | –
10 | C1CCC(N=C2N(C3CCCCC3)C(=NC3CCCCC3)N2C2CCCCC2)CC1 | – | > 100 | > 100 | > 100 | > 100 | > 100 | > 100 | > 100 | – | > 100 | > 100 | – | > 100
11 | COc1cc2nc(Cl)nc(NS(=O)(=O)c3cc4ccccc4s3)c2cc1OC | > 100 | 68.5 | > 100 | > 100 | > 100 | 99.6 | 62.5 | 60 | 71.7 | 52.6 | – | – | –
12 | Cc1c(C)c2c(c(N)c1C#N)C(=O)N(Cc1ccc(S(N)(=O)=O)cc1)C2=O | > 100 | > 80.6 | 19.3 | 99.7 | > 86.3 | > 63.4 | > 100 | > 53.3 | 73.4 | > 100 | – | – | –
13 | Cc1c(C)c(S(=O)(=O)N(CCCCN)OCCCN)c(C)c2c1OC(C)(C)CC2 | > 100 | > 100 | 32.6 | 37.8 | 49.6 | 47.2 | 38.1 | 32.7 | 99.4 | > 100 | – | – | –
14 | CC(N)(CC(O)(C(F)(F)Cl)C(F)(F)Cl)C(=O)O (stereo not given) | > 10 | > 10 | > 10 | > 10 | > 10 | > 10 | > 10 | > 10 | > 10 | > 10 | – | – | –
15 | COC1(OC)CCc2c(sc3ncnc(Nc4cccc(Br)c4)c23)C1 | 76.3 | > 100 | > 100 | > 100 | > 100 | > 100 | > 100 | 83.2 | > 100 | > 100 | – | – | –
16 | [B]C(=O)NC(CC(C)C)C(=O)NCC(=O)NC1c2ccsc2C(=O)C1O (stereo not given) (tested in a mixture with another compound) | > 100 | > 100 | > 100 | > 100 | > 100 | > 100 | > 100 | > 100 | > 100 | > 31.6 | – | – | –
